From patent US12606533B2, “3-phenylpropylamine derivative” (DAIICHI SANKYO COMPANY, LIMITED, priority 2023, dated 2026)
Like-named read-outs stand apart in the source and are kept apart here.

How the values were obtained:
[1] = molecular target: T1, SF-1 (Homo sapiens, UniProt Q13285); experiment: SF1 degradation induction in NCI-H295R SF-1-HiBiT cells (HiBiT DC50); assay type: cell-based; details: 24 hr, concentration that induces 50% degradation of SF-1
T1 construct: NCI-H295R SF-1-HiBiT cells with HiBiT tag knocked in at the endogenous SF1 locus; host or cells: NCI-H295R SF-1-HiBiT (knock-in at endogenous locus)
How it was run: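 NCI-H295R cells carrying HiBiT-tagged SF-1, plated and grown 24 hr, then exposed to serially diluted compounds for 24 hr at 37° C. Remaining SF-1 read by lytic HiBiT luminescence; degradation rate from treated vs compound-free signal, DC50 as concentration giving 50% degradation.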

[2] = test system: NCI-H295R cells; experiment: Proliferation inhibitory action on NCI-H295R (CellTiter-Glo, 7 days); assay type: cell-based, human
How it was run: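 Compounds serially diluted in DMSO; cells seeded at 2×10^3 cells/well and cultured 7 days at 37° C, 5% CO2. CellTiter-Glo 2.0 luminescence read at day 0 and day 7; proliferation rate derived from compound-addition-day signal, untreated day-7 signal and treated day-7 signal.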

| SMILES | DC50 [1] [nM] | GI50 ([2]; Homo sapiens, NCI-H295R, 168 h) [nM] | GI50 [2] [nM] |
| --- | --- | --- | --- |
| COc1ccc([C@]2(CCN(Cc3ccc(C4=CC[C@H](CN5CCN(C(=O)c6ccc7c(c6)n(C)c(=O)n7[C@@H]6CCC(=O)NC6=O)CC5)CC4)cc3)CC(C)(C)C(F)(F)F)CCOC(C)(C)C2)cc1 [AO7, (3R)-3-{5-[(4-{[(4R)-4′-{[{2-[(4R)-4-(4-Methoxyphenyl)-2,2-dimethyltetrahydro-2H-pyran-4-yl]ethyl}(3,3,3-trifluoro-2,2-dimethylpropyl)amino]methyl}-2,3,4,5-tetrahydro[biphenyl]-4-yl]methyl}piperazin-1-yl)carbonyl]-3-methyl-2-oxo-2,3-dihydro-1H-benzimidazol-1-yl}piperidine-2,6-dione] | 5.4 | 39 |  |
| COc1ccc([C@]2(CCN(Cc3ccc(C4=CCC(C(=O)N5CCN(Cc6ccc7c(c6)n(C)c(=O)n7C6CCC(=O)NC6=O)CC5)CC4)c(F)c3F)CC(C)(C)C(F)(F)F)CCOC(C)(C)C2)cc1 (stereo partly drawn) [AV2, 3-[5-({4-[(2′,3′-Difluoro-4′-{[{2-[(4R)-4-(4-methoxyphenyl)-2,2-dimethyltetrahydro-2H-pyran-4-yl]ethyl}(3,3,3-trifluoro-2,2-dimethylpropyl)amino]methyl}-2,3,4,5-tetrahydro[biphenyl]-4-yl)carbonyl]piperazin-1-yl}methyl)-3-methyl-2-oxo-2,3-dihydro-1H-benzimidazol-1-yl]piperidine-2,6-dione] | 7.4 | 61 |  |
| Cn1c(=O)n(C2CCC(=O)NC2=O)c2ccc(C(=O)N3CCN(CC4CC=C(c5ccc(CN(CC[C@@]6(c7ccc(OC(F)F)cc7)CCOC(C)(C)C6)CC(C)(C)C(F)(F)F)cc5)CC4)CC3)cc21 (stereo partly drawn) [AM10, 3-[5-({4-[(4′-{[(2-{(4R)-4-[4-(Difluoromethoxy)phenyl]-2,2-dimethyltetrahydro-2H-pyran-4-yl}ethyl) (3,3,3-trifluoro-2,2-dimethylpropyl)amino]methyl}-2,3,4,5-tetrahydro[biphenyl]-4-yl)methyl]piperazin-1-yl}carbonyl)-3-methyl-2-oxo-2,3-dihydro-1H-benzimidazol-1-yl]piperidine-2,6-dione] | 7.3 | 106 |  |
| COc1ccc([C@]2(CCN(Cc3ccc(OC4CC5(CCN(CC(=O)Nc6ccc7c(c6)C(=O)N(C6CCC(=O)NC6=O)C7=O)CC5)C4)cc3)CC(C)(C)C(F)(F)F)CCOC(C)(C)C2)cc1 (stereo partly drawn) [AQ1, N-[2-(2,6-Dioxopiperidin-3-yl)-1,3-dioxo-2,3-dihydro-1H-isoindol-5-yl]-2-[2-(4-{[{2-[(4R)-4-(4-methoxyphenyl)-2,2-dimethyltetrahydro-2H-pyran-4-yl]ethyl}(3,3,3-trifluoro-2,2-dimethylpropyl)amino]methyl}phenoxy)-7-azaspiro[3.5]nonan-7-yl]acetamide] | 56 | 286 |  |
| COc1ccc([C@]2(CCN(Cc3ccc(C4=CC[C@H](C(=O)N5CCC(Nc6cc7c(cc6F)n(C6CCC(=O)NC6=O)c(=O)n7C)CC5)CC4)cc3)CC(C)(C)C(F)(F)F)CCOC(C)(C)C2)cc1 (stereo partly drawn) [BT6, 3-{6-Fluoro-5-[(1-{[(4R)-4′-{[{2-[(4R)-4-(4-methoxyphenyl)-2,2-dimethyltetrahydro-2H-pyran-4-yl]ethyl}(3,3,3-trifluoro-2,2-dimethylpropyl)amino]methyl}-2,3,4,5-tetrahydro[biphenyl]-4-yl]carbonyl}piperidin-4-yl)amino]-3-methyl-2-oxo-2,3-dihydro-1H-benzimidazol-1-yl}piperidine-2,6-dione] | 3.5 | 48 |  |
| COc1ccc([C@]2(CCN(Cc3ccc(C4=CCC(CN5CCN(C(=O)c6cc7c(cn6)n(C6CCC(=O)NC6=O)c(=O)n7C)CC5)CC4)cc3)CC(C)(C)C(F)(F)F)CCOC(C)(C)C2)cc1 (stereo partly drawn) [BJ6, 3-[6-({4-[(4′-{[{2-[(4R)-4-(4-Methoxyphenyl)-2,2-dimethyltetrahydro-2H-pyran-4-yl]ethyl}(3,3,3-trifluoro-2,2-dimethylpropyl)amino]methyl}-2,3,4,5-tetrahydro[biphenyl]-4-yl)methyl]piperazin-1-yl}carbonyl)-1-methyl-2-oxo-1,2-dihydro-3H-imidazo[4,5-c]pyridin-3-yl]piperidine-2,6-dione] | 17 | 97 |  |
| COc1ccc([C@]2(CCN(Cc3ccc4nn(C5CC6(CCN(CC(=O)Nc7ccc8c(c7)n(C)c(=O)n8C7CCC(=O)NC7=O)CC6)C5)cc4c3)CC(C)(C)C(F)(F)F)CCOC(C)(C)C2)cc1 (stereo partly drawn) [AZ8, N-[1-(2,6-Dioxopiperidin-3-yl)-3-methyl-2-oxo-2,3-dihydro-1H-benzimidazol-5-yl]-2-[2-(5-{[{2-[(4R)-4-(4-methoxyphenyl)-2,2-dimethyltetrahydro-2H-pyran-4-yl]ethyl}(3,3,3-trifluoro-2,2-dimethylpropyl)amino]methyl}-2H-indazol-2-yl)-7-azaspiro[3.5]nonan-7-yl]acetamide] | 7 | 28 |  |
| COc1ccc([C@]2(CCN(Cc3ccc(C4=CC[C@H](CN5CCN(C(=O)c6ccc7c(c6)n(C)c(=O)n7[C@H]6CCC(=O)NC6=O)CC5)CC4)cc3)CC(C)(C)C(F)(F)F)CCOC(C)(C)C2)cc1 [AP6, (3S)-3-{5-[(4-{[(4R)-4′-{[{2-[(4R)-4-(4-Methoxyphenyl)-2,2-dimethyltetrahydro-2H-pyran-4-yl]ethyl}(3,3,3-trifluoro-2,2-dimethylpropyl)amino]methyl}-2,3,4,5-tetrahydro[biphenyl]-4-yl]methyl}piperazin-1-yl)carbonyl]-3-methyl-2-oxo-2,3-dihydro-1H-benzimidazol-1-yl}piperidine-2,6-dione] | 4.1 | 68 |  |
| COc1ccc([C@]2(CCN(CC(C)(C)C(F)(F)F)C[C@H]3CC[C@H](c4ccc(NC(=O)C5CC(Nc6ccc7c(c6)n(C)c(=O)n7C6CCC(=O)NC6=O)C5)cc4)CC3)CCOC(C)(C)C2)cc1 (stereo partly drawn) [BD6, 3-{[1-(2,6-Dioxopiperidin-3-yl)-3-methyl-2-oxo-2,3-dihydro-1H-benzimidazol-5-yl]amino)-N-[4-(trans-4-{[{2-[(4R)-4-(4-methoxyphenyl)-2,2-dimethyltetrahydro-2H-pyran-4-yl]ethyl}(3,3,3-trifluoro-2,2-dimethylpropyl)amino]methyl}cyclohexyl)phenyl]cyclobutanecarbox amide] | 3 | 57 |  |
| COc1ccc([C@]2(CCN(Cc3ccc(OC4CC5(CCN(CC(=O)N6CCn7c(=O)n(C8CCC(=O)NC8=O)c8cccc6c87)CC5)C4)cc3)CC(C)(C)C(F)(F)F)CCOC(C)(C)C2)cc1 (stereo partly drawn) [AN5, 3-[6-{[2-(4-{[{2-[(4R)-4-(4-Methoxyphenyl)-2,2-dimethyltetrahydro-2H-pyran-4-yl]ethyl}(3,3,3-trifluoro-2,2-dimethylpropyl)amino]methyl}phenoxy)-7-azaspiro[3.5]nonan-7-yl]acetyl}-2-oxo-5,6-dihydro-4H-imidazo[1,5,4-de]quinoxalin-1(2H)-yl]piperidine-2,6-dione] | 12 | 92 |  |
| COc1ccc([C@]2(CCN(Cc3ccc(C4=CCC(C(=O)N5CCN(Cc6ccc7c(c6)n(C)c(=O)n7C6CCC(=O)NC6=O)CC5)CC4)cc3F)CC(C)(C)C(F)(F)F)CCOC(C)(C)C2)cc1 (stereo partly drawn) [AT3, 3-[5-({4-[(3′-Fluoro-4′-{[{2-[(4R)-4-(4-methoxyphenyl)-2,2-dimethyltetrahydro-2H-pyran-4-yl]ethyl}(3,3,3-trifluoro-2,2-dimethylpropyl)amino]methyl}-2,3,4,5-tetrahydro[biphenyl]-4-yl)carbonyl]piperazin-1-yl}methyl)-3-methyl-2-oxo-2,3-dihydro-1H-benzimidazol-1-yl]piperidine-2,6-dione] | 7.7 | 45 |  |
| COc1ccc([C@]2(CCN(Cc3ccc(C4=CCC(CN5CCN(C(=O)c6ccc7c(c6)n(C)c(=O)n7C6CCC(=O)NC6=O)CC5)CC4)cc3)CC3(C(F)(F)F)CCC3)CCOC(C)(C)C2)cc1 (stereo partly drawn) [AR7, 3-(5-{[4-({4′-[({2-[(4R)-4-(4-Methoxyphenyl)-2,2-dimethyltetrahydro-2H-pyran-4-yl]ethyl}{[1-(trifluoromethyl)cyclobutyl]methyl}amino)methyl]-2,3,4,5-tetrahydro[biphenyl]-4-yl}methyl)piperazin-1-yl]carbonyl}-3-methyl-2-oxo-2,3-dihydro-1H-benzimidazol-1-yl)piperidine-2,6-dione] | 6.5 | 82 |  |
| COc1ccc([C@]2(CCN(Cc3ccc(C4=CC[C@H](CN5CCN(C(=O)c6ccc7c8c6NCCn8c(=O)n7[C@@H]6CCC(=O)NC6=O)CC5)CC4)cc3)CC(C)(C)C(F)(F)F)CCOC(C)(C)C2)cc1 [CF1, (3R)-3-{7-[(4-{[(4R)-4′-{[{2-[(4R)-4-(4-Methoxyphenyl)-2,2-dimethyltetrahydro-2H-pyran-4-yl]ethyl)(3,3,3-trifluoro-2,2-dimethylpropyl)amino]methyl}-2,3,4,5-tetrahydro[biphenyl]-4-yl]methyl}piperazin-1-yl)carbonyl]-2-oxo-5,6-dihydro-4H-imidazo[1,5,4-de]quinoxalin-1(2H)-yl}piperidine-2,6-dione] | 5.1 | 84 |  |
| COc1ccc([C@]2(CCN(Cc3ccc(C4=CC[C@H](C(=O)N5CCC(Nc6ccc7c8c6CCCn8c(=O)n7C6CCC(=O)NC6=O)CC5)CC4)c(F)c3)CC(C)(C)C(F)(F)F)CCOC(C)(C)C2)cc1 (single isomer, unassigned) [CH1, (3S) or (3R)-{7-[(1-{[(4R)-2′-Fluoro-4′-{[{2-[(4R)-4-(4-methoxyphenyl)-2,2-dimethyltetrahydro-2H-pyran-4-yl]ethyl}(3,3,3-trifluoro-2,2-dimethylpropyl)amino]methyl}-2,3,4,5-tetrahydro[biphenyl]-4-yl]carbonyl}piperidin-4-yl)amino]-2-oxo-5,6-dihydro-4H-imidazo[4,5,1-ij]quinolin-1(2H)-yl}piperidine-2,6-dione] | 2.8 |  | 25 |
